Laboratory results reported in patent US7351722B2, “Use of Mangafodipir for treating oxidative stress effects” (Universite Rene Descartes (Paris V), priority 2001, dated 2008).
Where two headings read alike, the source gives them in different places.

Test system: acetaminophen-induced acute hepatic failure
Details: for survival rate: 24 hours after APAP 1000 mg/kg; for number of surviving animals: n = 12
Protocol: Intraperitoneal injection of acetaminophen into mice induces severe hepatotoxicity, the degree of which can be evaluated by animal survival and macroscopic and microscopic examination of the livers.
The Mangafodipir (marketed under the name […]™ by Nicomed-Amersham) is administered in the form of a bolus, intraperitoneally.
The acetaminophen (APAP), in solution at 100 mg/ml in PBS, at pH 7.4, is administered intraperitoneally.
In a first series of experiments, one group of mice was given a dose of 1000 mg/kg of acetaminophen; a second group was given a dose of 1000 mg/kg of acetaminophen, and a dose of 10 mg/kg of Mangafodipir administered either 2 h before the acetaminophen, or 6 h after; a control group was given Mangafodipir alone (10 mg/kg), or PBS alone.
Animal survival was monitored for 24 hours after the administration of acetaminophen.

“Manganese dipyridoxyl phosphate [Mangafodipir]” was tested, and the survival rate (Mangafodipir after acetaminophen (curative protocol)) was “greater than 41%”, the survival rate (Mangafodipir before acetaminophen (preventive protocol)) was “about 66%” and the “number of surviving animals” value (Group III preventive, 10 mg/kg i.p. 2 h before 1000 mg/kg APAP, time 0 h) was 12. The “number of surviving animals” value (Group III preventive, 10 mg/kg i.p. 2 h before 1000 mg/kg APAP, time 6 h) was 12, the “number of surviving animals” value (Group III preventive, 10 mg/kg i.p. 2 h before 1000 mg/kg APAP, time 8 h) was 12 and the “number of surviving animals” value (Group III preventive, 10 mg/kg i.p. 2 h before 1000 mg/kg APAP, time 9 h) was 12. The “number of surviving animals” value (Group III preventive, 10 mg/kg i.p. 2 h before 1000 mg/kg APAP, time 10 h) was 11, the “number of surviving animals” value (Group III preventive, 10 mg/kg i.p. 2 h before 1000 mg/kg APAP, time 11 h) was 11 and the “number of surviving animals” value (Group III preventive, 10 mg/kg i.p. 2 h before 1000 mg/kg APAP, time 12 h) was 11. For the same substance, the “number of surviving animals” value (Group III preventive, 10 mg/kg i.p. 2 h before 1000 mg/kg APAP, time 13 h) was 10, the “number of surviving animals” value (Group III preventive, 10 mg/kg i.p. 2 h before 1000 mg/kg APAP, time 14 h) was 10 and the “number of surviving animals” value (Group III preventive, 10 mg/kg i.p. 2 h before 1000 mg/kg APAP, time 15 h) was 10. For the same substance, the “number of surviving animals” value (Group III preventive, 10 mg/kg i.p. 2 h before 1000 mg/kg APAP, time 16 h) was 9, the “number of surviving animals” value (Group III preventive, 10 mg/kg i.p. 2 h before 1000 mg/kg APAP, time 17 h) was 9 and the “number of surviving animals” value (Group III preventive, 10 mg/kg i.p. 2 h before 1000 mg/kg APAP, time 18 h) was 9. For the same substance, the “number of surviving animals” value (Group III preventive, 10 mg/kg i.p. 2 h before 1000 mg/kg APAP, time 20 h) was 9, the “number of surviving animals” value (Group III preventive, 10 mg/kg i.p. 2 h before 1000 mg/kg APAP, time 22 h) was 8 and the “number of surviving animals” value (Group III preventive, 10 mg/kg i.p. 2 h before 1000 mg/kg APAP, time 24 h) was 8. For the same substance, the “number of surviving animals” value (Group IV curative, 10 mg/kg i.p. 6 h after 1000 mg/kg APAP, time 0 h) was 12, the “number of surviving animals” value (Group IV curative, 10 mg/kg i.p. 6 h after 1000 mg/kg APAP, time 6 h) was 12 and the “number of surviving animals” value (Group IV curative, 10 mg/kg i.p. 6 h after 1000 mg/kg APAP, time 8 h) was 11. The “number of surviving animals” value (Group IV curative, 10 mg/kg i.p. 6 h after 1000 mg/kg APAP, time 9 h) was 11, the “number of surviving animals” value (Group IV curative, 10 mg/kg i.p. 6 h after 1000 mg/kg APAP, time 10 h) was 10 and the “number of surviving animals” value (Group IV curative, 10 mg/kg i.p. 6 h after 1000 mg/kg APAP, time 11 h) was 9. For the same substance, the “number of surviving animals” value (Group IV curative, 10 mg/kg i.p. 6 h after 1000 mg/kg APAP, time 12 h) was 9, the “number of surviving animals” value (Group IV curative, 10 mg/kg i.p. 6 h after 1000 mg/kg APAP, time 13 h) was 8 and the “number of surviving animals” value (Group IV curative, 10 mg/kg i.p. 6 h after 1000 mg/kg APAP, time 14 h) was 8. For the same substance, the “number of surviving animals” value (Group IV curative, 10 mg/kg i.p. 6 h after 1000 mg/kg APAP, time 15 h) was 8, the “number of surviving animals” value (Group IV curative, 10 mg/kg i.p. 6 h after 1000 mg/kg APAP, time 16 h) was 7 and the “number of surviving animals” value (Group IV curative, 10 mg/kg i.p. 6 h after 1000 mg/kg APAP, time 17 h) was 7. For the same substance, the “number of surviving animals” value (Group IV curative, 10 mg/kg i.p. 6 h after 1000 mg/kg APAP, time 18 h) was 7, the “number of surviving animals” value (Group IV curative, 10 mg/kg i.p. 6 h after 1000 mg/kg APAP, time 20 h) was 6 and the “number of surviving animals” value (Group IV curative, 10 mg/kg i.p. 6 h after 1000 mg/kg APAP, time 22 h) was 6. For the same substance, the “number of surviving animals” value (Group IV curative, 10 mg/kg i.p. 6 h after 1000 mg/kg APAP, time 24 h) was 5.
